In ChEMBL document CHEMBL1914365, “Aminoacyl-tRNA synthetase inhibitors as potential antibiotics” (Eur J Med Chem, 2011):
In brackets after ≈: the same amount, converted by molar mass.

Key:
Staphylococcus = test: Antibacterial activity against Staphylococcus aureus; assay type: functional
[1] = Inhibition of Trypanosoma brucei Leucyl-tRNA synthetase
Trypanosoma brucei = test: Antitrypanosomal activity against Trypanosoma brucei assessed as growth inhibition; assay type: functional, organism-based
[2] = test system: Staphylococcus epidermidis; test: Antibacterial activity against Staphylococcus epidermidis; assay type: functional
[3] = Inhibition of Staphylococcus aureus Methionyl-tRNA synthetase
Staphylococcus aureus [4] = test: Antibacterial activity against mupirocin or oxacillin-resistant Staphylococcus aureus; assay type: functional
Streptococcus pyogenes = test: Antibacterial activity against Streptococcus pyogenes; assay type: functional
[5] = Inhibition of Escherichia coli Methionyl-tRNA synthetase
Isoleucine--tRNA ligase = Isoleucine--tRNA ligase (Escherichia coli K-12, UniProt P00956); test: Competitive inhibition of Escherichia coli Isoleucyl-tRNA synthetase
Isoleucine--tRNA ligase, sequence (P00956 whole entry): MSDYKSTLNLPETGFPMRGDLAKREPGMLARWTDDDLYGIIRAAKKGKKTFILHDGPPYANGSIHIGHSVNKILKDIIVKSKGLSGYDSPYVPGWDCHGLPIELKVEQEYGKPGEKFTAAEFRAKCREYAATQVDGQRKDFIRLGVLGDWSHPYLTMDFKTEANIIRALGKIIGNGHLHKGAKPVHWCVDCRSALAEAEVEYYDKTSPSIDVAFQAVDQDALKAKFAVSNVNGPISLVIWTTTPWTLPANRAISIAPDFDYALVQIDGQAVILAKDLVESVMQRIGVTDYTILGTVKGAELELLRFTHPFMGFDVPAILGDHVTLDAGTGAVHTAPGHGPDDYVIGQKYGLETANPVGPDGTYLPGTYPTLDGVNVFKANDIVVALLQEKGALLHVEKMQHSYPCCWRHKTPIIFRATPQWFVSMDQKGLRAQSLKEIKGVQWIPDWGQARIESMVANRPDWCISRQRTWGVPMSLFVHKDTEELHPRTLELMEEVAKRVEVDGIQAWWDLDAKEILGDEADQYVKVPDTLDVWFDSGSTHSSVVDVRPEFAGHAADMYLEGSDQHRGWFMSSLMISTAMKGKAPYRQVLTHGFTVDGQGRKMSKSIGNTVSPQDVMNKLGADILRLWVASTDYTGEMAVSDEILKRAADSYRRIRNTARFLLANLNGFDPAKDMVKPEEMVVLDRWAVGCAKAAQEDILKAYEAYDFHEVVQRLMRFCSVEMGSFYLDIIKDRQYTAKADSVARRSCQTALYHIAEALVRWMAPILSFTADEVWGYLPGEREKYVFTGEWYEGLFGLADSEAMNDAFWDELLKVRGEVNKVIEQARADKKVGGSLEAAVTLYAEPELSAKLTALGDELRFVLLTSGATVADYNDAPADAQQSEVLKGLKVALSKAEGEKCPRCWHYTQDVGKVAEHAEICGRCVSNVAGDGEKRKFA

Staphylococcus aureus [6] = test: Antibacterial activity against methicillin-resistant Staphylococcus aureus; assay type: functional
Escherichia coli = test: Antibacterial activity against Escherichia coli; assay type: functional

Compound O=C1OCC(NNc2ccc([N+](=O)[O-])cc2)=C1c1ccc(Br)cc1 has an MIC50 (Staphylococcus) of 0.42 µg/mL (≈ 1.08 µM).

CCOC(=O)COc1ccc2c(c1)B(O)OC2 gave an IC50 [1] of 1600 nM.

For CC(=O)C(C)(C)Oc1ccc2c(c1)B(O)OC2, the EC50 (Trypanosoma brucei) was 370 nM.

CC(C)C[C@H](NC(=O)[C@H](CC(C)C)N1C[C@@H](CNC(=O)Nc2ccccc2)NC1=O)C(=O)O gave an MIC50 [2] of 6.25 µM (≈ 2.88 µg/mL).

For CC(C)C[C@H](NC(=O)[C@H](CC(C)C)N1C[C@@H](CNC(=O)Nc2ncccn2)NC1=O)C(=O)O, the MIC50 [2] was 25 µM (≈ 11.6 µg/mL).

CC(C)C[C@H](NC(=O)[C@H](CC(C)C)N1C[C@@H](CNS(=O)(=O)c2ccccc2)NC1=O)C(=O)O gave an MIC50 [2] of 100 µM (≈ 48.3 µg/mL).

Work on C=C(F)c1sc(CNCCCNc2cc(=O)c3ccccc3[nH]2)c(C)c1Br [BEDEROCIN] yielded a Ki [3] of 0.01 nM, an MIC90 (Staphylococcus aureus [4]) of 0.5 µg/mL (≈ 1.11 µM) and an MIC (Streptococcus pyogenes) of 0.03 µg/mL (≈ 0.0666 µM). It also gave a Ki [5] of 300 nM.

Work on C/C(=C\C(=O)OCCCCCCCCC(=O)O)C[C@@H]1OC[C@H](C[C@@H]2O[C@H]2[C@@H](C)[C@H](C)O)[C@@H](O)[C@H]1O [MUPIROCIN] yielded a Ki (Isoleucine--tRNA ligase) of 2.5 nM, an MIC (Staphylococcus aureus [6]) of 0.25 µg/mL (≈ 0.499 µM) and an MIC (Escherichia coli) of 128 µg/mL (≈ 256 µM).
